# Assay results: the supplement of paper PMC11208160
# Assay: recombinant UMI read abundance after kanamycin selection (control-corrected) (log10(CPM+1)); higher = more efficient recombination; extreme values may be limits of the assay; sequences stand for … in AGTGCAGAGAAAATCGGCCAGTTTTCTCTGCCTGCAGTCCGCATGCCGTGGGACCCCTTGGGTTCTAACCTGTTGCCTAGATTTATGCAGCGGACTGCCTTTCTCCCAAAGTGATAAACCGG…AGGTTGGTTTCACT; site = the 11-nt donor
# In short: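 Values are reported as log10(CPM+1), obtained by converting sequencing counts to CPM, averaging replicates and scaling by control-derived factors. The counts came from recombinant UMIs amplified by PCR across the donor–target junction. These UMIs came from a pooled Escherichia coli screen of donor and donor-binding-loop pairs for the IS621 bridge recombinase, plated with IPTG (0.07 mM) plus kanamycin or left unselected, in two replicates each.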
# 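Further: IS621 bridge recombinase in Escherichia coli cells against a fixed T5 target plasmid.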
row,Sequence,recombinant UMI read abundance (log10)
1,CAAGCACCATGGACCGGTTTTCCCGGTAATCCGTATTTGCT (site CAAGCAACTAG),0
2,CAAGCACCATGGACCGGTTTTCCCGGTAATCCGTATTTGCT (site CAAGCACCTAG),0.47
3,CAAGCACCATGGACCGGTTTTCCCGGTAATCCGTATTTGCT (site CAAGCAGCTAG),0.0135
4,CAAGCACCATGGACCGGTTTTCCCGGTAATCCGTATTTGCT (site CAAGCATCTAG),0.0059
5,CAAGCAGCATGGACCGGTTTTCCCGGTAATCCGTATTTGCC (site CAAGCAGCTAG),1.86
6,CAAGCAGCATGGACCGGTTTTCCCGGTAATCCGTATTTGCC (site CAAGCAGCTCG),1.16
7,CAAGCAGCATGGACCGGTTTTCCCGGTAATCCGTATTTGCC (site CAAGCAGCTGG),2.75
8,CAAGCAGCATGGACCGGTTTTCCCGGTAATCCGTATTTGCC (site CAAGCAGCTTG),1.94
9,CAAGCATCATGGACCGGTTTTCCCGGTAATCCGTATTTGCT (site CAAGCAACTAG),0
10,CAAGCATCATGGACCGGTTTTCCCGGTAATCCGTATTTGCT (site CAAGCACCTAG),0
11,CAAGCATCATGGACCGGTTTTCCCGGTAATCCGTATTTGCT (site CAAGCAGCTAG),0
12,CAAGCATCATGGACCGGTTTTCCCGGTAATCCGTATTTGCT (site CAAGCATCTAG),2.05
13,CAAGCCTCATGGACCGGTTTTCCCGGTAATCCGTATTTGTC (site CAAGCCTCTGA),3.3
14,CAAGCGCCATGGACCGGTTTTCCCGGTAATCCGTATTTGTT (site CAAGCGCCTAA),2.13
15,CAAGCGCCATGGACCGGTTTTCCCGGTAATCCGTATTTGTT (site CAAGCGCCTCA),0.0113
16,CAAGCGCCATGGACCGGTTTTCCCGGTAATCCGTATTTGTT (site CAAGCGCCTGA),1.75
17,CAAGCGCCATGGACCGGTTTTCCCGGTAATCCGTATTTGTT (site CAAGCGCCTTA),0.663
18,CAAGCTGCATGGACCGGTTTTCCCGGTAATCCGTATTTGCT (site CAAGCAGCTAG),0.397
19,CAAGCTGCATGGACCGGTTTTCCCGGTAATCCGTATTTGCT (site CAAGCCGCTAG),0.95

row,Sequence,recombinant UMI read abundance (log10)
1,CAAGCTGCATGGACCGGTTTTCCCGGTAATCCGTATTTGCT (site CAAGCGGCTAG),0
2,CAAGCTGCATGGACCGGTTTTCCCGGTAATCCGTATTTGCT (site CAAGCTGCTAG),2.42
3,CAAGGAGCATGGACCGGTTTTCCCGGTAATCCGTATTTGTC (site CAAGGAGCTGA),3.18
4,CAAGTCACATGGACCGGTTTTCCCGGTAATCCGTATTTGAG (site CAAGTCACTCA),1.48
5,CAAGTCACATGGACCGGTTTTCCCGGTAATCCGTATTTGAG (site CAAGTCACTCC),0.563
6,CAAGTCACATGGACCGGTTTTCCCGGTAATCCGTATTTGAG (site CAAGTCACTCG),1.1
7,CAAGTCACATGGACCGGTTTTCCCGGTAATCCGTATTTGAG (site CAAGTCACTCT),1.82
8,CAAGTCCCATGGACCGGTTTTCCCGGTAATCCGTATTTGCT (site CAAATCCCTAG),0
9,CAAGTCCCATGGACCGGTTTTCCCGGTAATCCGTATTTGCT (site CAACTCCCTAG),0.843
10,CAAGTCCCATGGACCGGTTTTCCCGGTAATCCGTATTTGCT (site CAAGTCCCTAG),1.92
11,CAAGTCCCATGGACCGGTTTTCCCGGTAATCCGTATTTGCT (site CAATTCCCTAG),0
12,CAAGTCGCATGGACCGGTTTTCCCGGTAATCCGTATTTGGG (site CAAGTCACTCC),0.0586
13,CAAGTCGCATGGACCGGTTTTCCCGGTAATCCGTATTTGGG (site CAAGTCCCTCC),0.554
14,CAAGTCGCATGGACCGGTTTTCCCGGTAATCCGTATTTGGG (site CAAGTCGCTCC),0.908
15,CAAGTCGCATGGACCGGTTTTCCCGGTAATCCGTATTTGGG (site CAAGTCTCTCC),1.46
16,CAAGTCTCATGGACCGGTTTTCCCGGTAATCCGTATTTGGG (site CAAGTCACTCC),0.0252
17,CAAGTCTCATGGACCGGTTTTCCCGGTAATCCGTATTTGGG (site CAAGTCCCTCC),0.019
18,CAAGTCTCATGGACCGGTTTTCCCGGTAATCCGTATTTGGG (site CAAGTCGCTCC),0.02
